Data as given in patent publication US9056874B2, “Complement pathway modulators and uses thereof” (NOVARTIS AG, priority 2012, dated 2015).

What follows are molecules tested against factor B (Homo sapiens, UniProt P00751) (assay: factor B inhibition assay of Biological Example 1). Details: IC50 (nM), assay of Biological Example 1 (Table 1).
factor B, sequence (P00751 260-764 limits assumed): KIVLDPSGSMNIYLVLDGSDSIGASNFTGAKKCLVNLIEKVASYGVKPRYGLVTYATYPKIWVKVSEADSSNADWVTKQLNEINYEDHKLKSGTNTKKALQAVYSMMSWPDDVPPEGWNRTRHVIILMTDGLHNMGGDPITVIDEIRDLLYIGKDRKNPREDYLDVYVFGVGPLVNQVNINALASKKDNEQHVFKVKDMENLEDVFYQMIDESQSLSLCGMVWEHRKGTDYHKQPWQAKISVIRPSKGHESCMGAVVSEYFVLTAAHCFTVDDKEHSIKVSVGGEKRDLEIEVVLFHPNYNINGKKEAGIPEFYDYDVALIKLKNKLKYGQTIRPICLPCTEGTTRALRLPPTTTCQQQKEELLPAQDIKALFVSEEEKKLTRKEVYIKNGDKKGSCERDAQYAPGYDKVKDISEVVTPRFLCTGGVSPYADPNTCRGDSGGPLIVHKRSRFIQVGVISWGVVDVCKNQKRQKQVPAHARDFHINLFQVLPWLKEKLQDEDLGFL
factor B, sequence (Q91132 23-649 partner limits assumed): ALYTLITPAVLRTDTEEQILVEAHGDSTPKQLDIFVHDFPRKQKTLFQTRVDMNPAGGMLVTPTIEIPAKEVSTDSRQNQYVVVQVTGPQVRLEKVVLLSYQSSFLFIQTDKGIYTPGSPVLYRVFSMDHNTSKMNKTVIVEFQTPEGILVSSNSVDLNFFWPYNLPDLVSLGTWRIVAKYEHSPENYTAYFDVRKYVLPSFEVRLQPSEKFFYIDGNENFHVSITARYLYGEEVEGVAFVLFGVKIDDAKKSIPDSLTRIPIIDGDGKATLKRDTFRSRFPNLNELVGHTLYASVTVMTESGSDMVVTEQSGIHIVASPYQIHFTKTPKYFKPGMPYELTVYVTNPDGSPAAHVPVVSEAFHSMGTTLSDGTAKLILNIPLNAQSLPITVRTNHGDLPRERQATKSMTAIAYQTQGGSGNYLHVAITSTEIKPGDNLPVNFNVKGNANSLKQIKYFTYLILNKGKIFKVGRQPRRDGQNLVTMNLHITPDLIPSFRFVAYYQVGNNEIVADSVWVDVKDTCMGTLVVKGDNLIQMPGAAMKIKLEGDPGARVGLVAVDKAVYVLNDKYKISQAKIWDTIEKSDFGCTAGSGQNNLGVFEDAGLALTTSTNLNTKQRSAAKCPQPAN
factor B, sequence (Q91132 733-984 partner limits assumed): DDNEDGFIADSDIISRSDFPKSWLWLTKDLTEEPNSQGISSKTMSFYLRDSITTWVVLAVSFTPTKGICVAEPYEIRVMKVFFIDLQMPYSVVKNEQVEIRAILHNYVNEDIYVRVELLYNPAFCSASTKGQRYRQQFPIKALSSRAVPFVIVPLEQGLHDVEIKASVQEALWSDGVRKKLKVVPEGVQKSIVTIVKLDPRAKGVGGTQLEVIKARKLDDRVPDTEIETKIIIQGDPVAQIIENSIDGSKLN
factor B, sequence (Q91132 1264-1642 partner limits assumed): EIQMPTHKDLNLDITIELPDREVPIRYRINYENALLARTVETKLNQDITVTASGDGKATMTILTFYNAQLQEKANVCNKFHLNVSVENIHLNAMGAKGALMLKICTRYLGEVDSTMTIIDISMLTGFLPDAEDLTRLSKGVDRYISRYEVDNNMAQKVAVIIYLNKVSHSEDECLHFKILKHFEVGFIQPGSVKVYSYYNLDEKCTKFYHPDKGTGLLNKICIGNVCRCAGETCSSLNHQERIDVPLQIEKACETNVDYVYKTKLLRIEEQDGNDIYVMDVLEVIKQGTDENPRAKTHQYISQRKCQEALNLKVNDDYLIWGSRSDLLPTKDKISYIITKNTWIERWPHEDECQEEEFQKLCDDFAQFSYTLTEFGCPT
Assay type: biochemical
Set-up: CVF-Bb complex prepared from purified cobra venom factor (1 μM), recombinant human complement factor B; made in house; host or cells: drosophila cells (factor B); E. coli (factor D used to form the complex)
Molecule `CCc1cc(C)c2[nH]cc(Cl)c2c1C(O)c1nc2cc(C#N)ccc2[nH]1` (racemic) [Example 87, (±)-2-((3-Chloro-5-ethyl-7-methyl-1H-indol-4-yl)(hydroxy)methyl)-1H-benzo[d]imidazole-5-carbonitrile] has an IC50 of 380 nM. Work on `Cc1cc(C)c2[nH]cc(C)c2c1C(O)c1nc2cc(C#N)ccc2[nH]1` (racemic) [Example 89-D, (±)-2-(Hydroxy(3,5,7-trimethyl-1H-indol-4-yl)methyl)-1H-benzo[d]imidazole-5-carbonitrile] yielded an IC50 of 2320 nM. Work on `CCc1cc(C)c2[nH]cc(C(O)C(F)(F)F)c2c1Cc1nc2cc(C#N)ccc2[nH]1` (racemic) [Example 92-B, (±)-2-((5-Ethyl-7-methyl-3-(2,2,2-trifluoro-1-hydroxyethyl)-1H-indol-4-yl)methyl)-1H-benzo[d]imidazole-5-carbonitrile] yielded an IC50 of 9750 nM. `CNC(c1nc2cc(C#N)ccc2[nH]1)c1c(C)cc(C)c2[nH]ccc12` (racemic) [Example 98-B, (±)-2-((5,7-Dimethyl-1H-indol-4-yl)(methylamino)methyl)-1H-benzo[d]imidazole-5-carbonitrile] was tested, and the IC50 was 560 nM. `Cc1cc(C)c2[nH]ccc2c1C(NS(C)(=O)=O)c1nc2cc(C#N)ccc2[nH]1` (racemic) [Example 99-B, (±)-N-((5-cyano-1H-benzo[d]imidazol-2-yl)(5,7-dimethyl-1H-indol-4-yl)methyl)methanesulfonamide] showed an IC50 of 750 nM. `CC(=O)NC(c1nc2cc(C#N)ccc2[nH]1)c1c(C)cc(C)c2[nH]ccc12` (racemic) [Example 100, (±)-N-((5-cyano-1H-benzo[d]imidazol-2-yl)(5,7-dimethyl-1H-indol-4-yl)methyl)acetamide] gave an IC50 of 1120 nM. With `CNC(C)(c1nc2cc(C#N)ccc2[nH]1)c1c(C)cc(C)c2[nH]ccc12` (racemic) [Example 103-E, (±)-2-(1-(5,7-Dimethyl-1H-indol-4-yl)-1-(methylamino)ethyl)-1H-benzo[d]imidazole-5-carbonitrile] the IC50 was 50 nM. For `Cc1cc(C)c2[nH]ccc2c1C(C)(c1nc2cc(C#N)ccc2[nH]1)N(C)C` (racemic) [Example 104-B, (±)-2-(1-(5,7-dimethyl-1H-indol-4-yl)-1-(dimethylamino)ethyl)-1H-benzo[d]imidazole-5-carbonitrile], the IC50 was 260 nM. With `Cc1cc(C)c2[nH]ccc2c1C(CO)c1nc2cc(C#N)ccc2[nH]1` (racemic) [Example 108-E, (±)-2-(1-(5,7-Dimethyl-1H-indol-4-yl)-2-hydroxyethyl)-1H-benzo[d]imidazole-5-carbonitrile] the IC50 was 80 nM. Molecule `CCc1cc(C)c2[nH]ccc2c1C(OCC(=O)O)(c1nc2cc(C#N)ccc2[nH]1)C(F)(F)F` (racemic) [Example 109-B, (±)-2-(1-(5-cyano-1H-benzo[d]imidazol-2-yl)-1-(5-ethyl-7-methyl-1H-indol-4-yl)-2,2,2-trifluoroethoxy)acetic acid] has an IC50 of 30 nM. Work on `CCc1cc(C)c2[nH]cc(-c3ccccc3)c2c1C(O)c1nc2cc(C#N)ccc2[nH]1` (racemic) [Example 117-F, (±)-2-((5-Ethyl-7-methyl-3-phenyl-1H-indol-4-yl)(hydroxy)methyl)-1H-benzo[d]imidazole-5-carbonitrile] yielded an IC50 of 70 nM. `Cc1cc(C)c2[nH]cc(-c3ccn[nH]3)c2c1C(O)c1nc2cc(C#N)ccc2[nH]1` (racemic) [Example 121-D, (±)-2-((5,7-Dimethyl-3-(1H-pyrazol-5-yl)-1H-indol-4-yl)(hydroxy)methyl)-1H-benzo[d]imidazole-5-carbonitrile] gave an IC50 of 480 nM. `COc1cc(C)c2[nH]ccc2c1C(OCC(=O)O)(c1nc2cc(C#N)ccc2o1)C(F)(F)F` (racemic) [Example 129-B, (±)-2-(1-(5-cyanobenzo[d]oxazol-2-yl)-2,2,2-trifluoro-1-(5-methoxy-7-methyl-1H-indol-4-yl)ethoxy)acetic acid] gave an IC50 of 7860 nM. Molecule `COc1cc(C)c2[nH]ccc2c1C(N)(c1nc2cc(C#N)ccc2o1)C(F)(F)F` (racemic) [Example 130-B, (±)-2-(1-Amino-2,2,2-trifluoro-1-(5-methoxy-7-methyl-1H-indol-4-yl)ethyl)benzo[d]oxazole-5-carbonitrile] has an IC50 of 20 nM. Molecule `COc1cc(C)c2[nH]ccc2c1C(O)c1nc2ccc(C#N)cc2s1` (racemic) [Example 132-B, (±)-2-(hydroxy(5-methoxy-7-methyl-1H-indol-4-yl)methyl)benzo[d]thiazole-6-carbonitrile] has an IC50 of 70 nM. Work on `COc1cc(C)c2[nH]ccc2c1C(O)c1cc2ccc(C#N)cc2o1` (racemic) [Example 133-B, (±)-2-(hydroxy(5-methoxy-7-methyl-1H-indol-4-yl)methyl)benzofuran-6-carbonitrile] yielded an IC50 of 100 nM. `COc1cc(C)c2[nH]ccc2c1C(O)c1cc2cc(C#N)ccc2o1` (racemic) [Example 134, (±)-2-(hydroxy(5-methoxy-7-methyl-1H-indol-4-yl)methyl)benzofuran-5-carbonitrile] gave an IC50 of 90 nM. With `COc1cc(C)c2[nH]ccc2c1C(O)c1cc2ccc(C#N)cc2[nH]1` (racemic) [Example 135-C, (±)-2-(hydroxy(5-methoxy-7-methyl-1H-indol-4-yl)methyl)-1H-indole-6-carbonitrile] the IC50 was 20 nM. `COc1cc(C)c2[nH]ccc2c1C(O)c1cc2cc(C#N)ccc2[nH]1` (racemic) [Example 136, (±)-2-(hydroxy(5-methoxy-7-methyl-1H-indol-4-yl)methyl)-1H-indole-5-carbonitrile] showed an IC50 of 20 nM. Work on `Cc1cc(S(C)(=O)=O)c(C(C)(O)c2nc3cc(C#N)ccc3[nH]2)c2cc[nH]c12` (single isomer, unassigned) [11-C b) (tr = 3 min), (+) or (−)-2-(1-hydroxy-1-(7-methyl-5-(methylsulfonyl)-1H-indol-4-yl)ethyl)-1H-benzo[d]imidazole-5-carbonitrile] yielded an IC50 of 90 nM. Work on `Cc1cc(S(C)(=O)=O)c(C(C)(O)c2nc3cc(C#N)ccc3[nH]2)c2cc[nH]c12` (single isomer, unassigned) [11-C b) (tr = 4.2 min), (−) or (+)-2-(1-hydroxy-1-(7-methyl-5-(methylsulfonyl)-1H-indol-4-yl)ethyl)-1H-benzo[d]imidazole-5-carbonitrile] yielded an IC50 of 1020 nM. With `Cc1cc(S(C)(=O)=O)c(C(N)c2nc3cc(C#N)ccc3[nH]2)c2cc[nH]c12` (single isomer, unassigned) [18-D (+), 2-(amino(7-methyl-5-(methylsulfonyl)-1H-indol-4-yl)methyl)-1H-benzo[d]imidazole-5-carbonitrile] the IC50 was 1240 nM. `Cc1cc(S(C)(=O)=O)c(C(N)c2nc3cc(C#N)ccc3[nH]2)c2cc[nH]c12` (single isomer, unassigned) [18-D (−), 2-(amino(7-methyl-5-(methylsulfonyl)-1H-indol-4-yl)methyl)-1H-benzo[d]imidazole-5-carbonitrile] was tested, and the IC50 was 150 nM. Work on `CCOc1cc(C)c2[nH]ccc2c1C(O)(c1nc2cc(C#N)ccc2[nH]1)C(F)(F)F` (single isomer, unassigned) [33-C b) (tr = 3 min), 2-(1-(5-ethoxy-7-methyl-1H-indol-4-yl)-2,2,2-trifluoro-1-hydroxyethyl)-1H-benzo[d]imidazole-5-carbonitrile] yielded an IC50 of 490 nM.
